# Measured values: patent US9540389B2, “Antimicrobial potentiators” (priority 2013, dated 2017)
# Columns and labels:
# [1] = system: Escherichia coli AB1157 (WT); assay: Checkerboard MIC assay (antibacterial agent + MBX2319); format: cell-based
# From the text: (§1) • Strains and Reagents. The following strains were obtained from the Keio collection (Baba, et al.: Construction of Escherichia coli K-12 in-frame, single-gene knockout mutants: the Keio collection. In Mol Syst Biol, vol. 2, pp. 2006 0008, (2006)): JW0451 (ΔacrB::kan), JW5503 (ΔtolC::kan), JW3234 (ΔacrF::kan), JW2661 (ΔemrB::kan), JW0863 (ΔmacB::kan). The deletion mutations in each of these strains were transferred to AB1157 using P1 phage transduction (see Table 1). The construction of the E. coli cell-based reporter strain (SOS-XXX) that was used for high throughput screening is described in detail in the supplementary information. […] Irgasan was a generous gift from Ciba Speciality Chemicals, Inc. (High Point, N.C.). Hoechst 33342 (H33342) was purchased from Molecular Probes (Eugene, Oreg.). […] Luria Broth (Miller) and agar were purchased as prepared dehydrated media from Becton Dickenson (Franklin Lakes, N.J.). The compound libraries used in high-throughput screens were purchased from Chembridge (San Diego, Calif.), ChemDiv (San Diego, Calif.), and TimTec (Newark, Del.). MBX2319 was synthesized by Microbiotix, Inc. • Antibacterial Activity Assays. The minimal inhibitory concentration (MIC) of antibacterial agents and biocides were determined using the microbroth dilution method essentially as described in the CLSI protocol M7-A7 (CLSI: Method for dilution antimicrobial susceptibility testing for bacteria that grow aerobically; Approved standard-document M7-A7. In Clinical and Laboratory Standards Institute document M7-A7, Clinical and Laboratory Standards Institute, Wayne, Pa., (2006)), with the following exceptions. LB media was used instead of MHB. […] The final concentration of DMSO in each assay was 2%. […] MIC assays were performed in triplicate and the geometric mean was calculated. Checkerboard MIC assays using an EPI and an antibacterial agent were performed essentially as described (Pillai, et al.: Antimicrobial Combinations. In Antibiotics in Laboratory Medicine, ed. by V. Lorian, pp. 365-440, Lippincott Williams & Wilkins, Philadelphia, Pa., (2005)), with the same modifications used for the MIC assays described above. • Time-Kill Assays. Killing curve assays were performed essentially as described (Pillai, et al.: Antimicrobial Combinations. In Antibiotics in Laboratory Medicine, ed. by V. Lorian, pp. 365-440, Lippincott Williams & Wilkins, Philadelphia, Pa., (2005)). Exponential bacterial cultures grown in LB were diluted to a cell density of ˜1×10^7 in LB followed by addition of CIP and/or an EPI. Viability was monitored over 2-4 hours by making serial dilutions in saline and spotting 5 μl of each dilution onto the surface of an LB agar plate in triplicate. Colonies were counted after the plates were incubated at 37° C. for 16-18 hr, colony forming units (CFU) per ml were calculated, and the average and standard deviation for the three replicates was determined. For treatments that decreased CFU/ml below the limit of detection for the spot plating method, the 100 μl samples were diluted into 5 ml LB top agar, were poured onto LB agar plates, and incubated for 18 hr at 37° C. To calculate the fraction of the control for each sample, the average CFU/ml values for treated samples were divided by those from the same sample at 0 h (time=0). Each experiment was repeated at least three times, and a representative experiment is shown. • H33342 Accumulation Assay. The rate of accumulation of the fluorescent dye Hoechst 33342 (H33342), which is a substrate of a wide variety of bacterial efflux pumps (van den Berg van Saparoea, et al., Biochemistry, vol. 44, pp. 16931-16938, (2005)), can be used to estimate the activity of the major efflux pumps in E. coli and many other bacterial species. The H33342 accumulation assay was used to evaluate the effect of EPIs on the activity of the AcrAB-TolC efflux pump in several bacterial species essentially as described (Coldham, et al., J Antimicrob Chemother, vol. 65, pp. 1655-1663, (2010)). […]
# [2] = system: Escherichia coli AB1157 ΔacrB; assay: as above; format: cell-based; conditions: Escherichia coli, read-out: MIC (μM) MBX2319
# From the text: as §1
# [3] = system: Escherichia coli AB1157 ΔacrF; assay: as above; format: cell-based; conditions: Escherichia coli, read-out: MIC (μM) MBX2319
# From the text: as §1
# [4] = system: Escherichia coli AB1157 ΔtolC; assay: as above; format: cell-based; conditions: Escherichia coli, read-out: MIC (μM) MBX2319
# From the text: as §1
# [5] = system: Escherichia coli 285 (AB1157, CIPR, overexpresses efflux); assay: microbe, parasite or virus in culture; format: cell-based
# From the text: as §1
# [6] = system: Escherichia coli 287 (AB1157, CIPR, overexpresses efflux); assay: microbe, parasite or virus in culture; format: cell-based
# From the text: as §1
# AcrAB-TolC efflux pump = AcrAB-TolC efflux pump (Escherichia coli, UniProt P31224); assay: H33342 accumulation assay; format: cell-based, Escherichia coli 285; parameters: endogenous in cells; host or cells: E. coli strains 285 and 287 (ciprofloxacin-resistant mutants of AB1157); conditions: hyper-efflux strain 285
# Sequence of AcrAB-TolC efflux pump (P31224 whole entry): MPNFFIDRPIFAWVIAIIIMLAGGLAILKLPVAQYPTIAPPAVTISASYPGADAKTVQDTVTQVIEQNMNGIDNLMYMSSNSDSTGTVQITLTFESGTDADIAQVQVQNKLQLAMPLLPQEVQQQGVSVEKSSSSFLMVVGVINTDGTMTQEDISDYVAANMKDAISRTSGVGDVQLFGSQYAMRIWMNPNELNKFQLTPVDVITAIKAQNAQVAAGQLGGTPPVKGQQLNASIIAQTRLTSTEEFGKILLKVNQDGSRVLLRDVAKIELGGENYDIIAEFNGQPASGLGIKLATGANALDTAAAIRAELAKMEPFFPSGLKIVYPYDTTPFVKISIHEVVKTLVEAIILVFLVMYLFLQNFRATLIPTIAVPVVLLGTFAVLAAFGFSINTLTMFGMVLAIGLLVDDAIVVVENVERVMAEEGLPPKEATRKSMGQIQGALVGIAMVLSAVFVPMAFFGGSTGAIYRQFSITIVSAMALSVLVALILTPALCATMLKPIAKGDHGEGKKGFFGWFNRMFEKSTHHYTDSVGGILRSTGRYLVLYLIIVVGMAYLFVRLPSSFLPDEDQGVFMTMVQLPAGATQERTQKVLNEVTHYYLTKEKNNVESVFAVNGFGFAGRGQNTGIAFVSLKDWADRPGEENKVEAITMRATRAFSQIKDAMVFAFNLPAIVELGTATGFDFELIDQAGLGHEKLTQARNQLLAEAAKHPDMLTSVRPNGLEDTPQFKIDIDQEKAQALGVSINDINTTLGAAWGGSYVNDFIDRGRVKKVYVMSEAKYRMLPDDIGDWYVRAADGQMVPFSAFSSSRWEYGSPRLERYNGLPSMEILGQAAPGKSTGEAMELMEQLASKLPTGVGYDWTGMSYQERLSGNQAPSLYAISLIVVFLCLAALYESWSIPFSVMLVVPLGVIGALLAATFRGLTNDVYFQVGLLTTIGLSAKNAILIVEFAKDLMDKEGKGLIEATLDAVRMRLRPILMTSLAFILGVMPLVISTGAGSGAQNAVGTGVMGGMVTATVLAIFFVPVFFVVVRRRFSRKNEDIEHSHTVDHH
# Sequence of AcrAB-TolC efflux pump (P0AE06 25-397, further chain): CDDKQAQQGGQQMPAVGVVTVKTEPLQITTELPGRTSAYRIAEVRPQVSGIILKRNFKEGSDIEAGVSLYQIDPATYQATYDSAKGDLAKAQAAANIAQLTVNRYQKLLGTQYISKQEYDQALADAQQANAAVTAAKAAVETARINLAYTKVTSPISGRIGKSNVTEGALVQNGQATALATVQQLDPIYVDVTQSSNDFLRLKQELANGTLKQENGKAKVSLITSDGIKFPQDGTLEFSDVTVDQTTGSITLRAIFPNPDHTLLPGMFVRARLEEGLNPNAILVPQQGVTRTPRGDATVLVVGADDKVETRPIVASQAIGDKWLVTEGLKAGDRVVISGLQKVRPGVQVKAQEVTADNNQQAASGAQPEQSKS
# Sequence of AcrAB-TolC efflux pump (P02930 23-493, further chain): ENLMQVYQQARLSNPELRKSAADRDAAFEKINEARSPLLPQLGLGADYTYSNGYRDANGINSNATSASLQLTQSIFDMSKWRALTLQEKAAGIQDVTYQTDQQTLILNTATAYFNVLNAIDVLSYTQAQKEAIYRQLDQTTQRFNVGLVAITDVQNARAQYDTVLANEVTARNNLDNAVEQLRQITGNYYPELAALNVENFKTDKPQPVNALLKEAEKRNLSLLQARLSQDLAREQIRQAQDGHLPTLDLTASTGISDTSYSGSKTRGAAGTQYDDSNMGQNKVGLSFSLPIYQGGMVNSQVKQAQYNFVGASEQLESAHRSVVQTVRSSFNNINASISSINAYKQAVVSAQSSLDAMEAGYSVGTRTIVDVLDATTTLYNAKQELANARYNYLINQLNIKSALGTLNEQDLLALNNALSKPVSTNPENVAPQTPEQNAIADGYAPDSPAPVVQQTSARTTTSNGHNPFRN
# [7] = Escherichia coli, read-out: MIC (μM) MBX2319
smiles,measurement,setting,value
CC1(C)Cc2c(C#N)c(SCCc3ccccc3)nc(N3CCOCC3)c2CO1 [MBX2319],MIC,"[1]; Escherichia coli, MBX2319 alone, strain WT, read-out: MIC (μM) MBX2319",≥ 100 µM
same,decrease of the MIC of CIP by MBX2319,"[1]; checkerboard, E. coli AB1157, ciprofloxacin",2 fold
same,decrease of the MIC of LEV by MBX2319,"[1]; checkerboard, E. coli AB1157, levofloxacin",4 fold
same,decrease of the MIC of PIP by MBX2319,"[1]; checkerboard, E. coli AB1157, piperacillin",8 fold
same,MIC,[2],≥ 100 µM
same,MIC,[3],≥ 100 µM
same,MIC,[4],≥ 100 µM
same,"potentiation of the antibacterial activity of CIP, LEV, and PIP",[5]; E. coli strain 285,4-8 fold
same,MIC,[5]; [7],≥ 100 µM
same,"potentiation of the antibacterial activity of CIP, LEV, and PIP",[6]; E. coli strain 287,4-8 fold
same,MIC,[6]; [7],≥ 100 µM
same,H33342 accumulation,AcrAB-TolC efflux pump,increased H33342 accumulation
